Assay results: PMC9424906 (Frontiers in Pharmacology, 2022)

Experiments:
ENT2 = settings: cited from earlier work
ENT1 = settings: cited from earlier work
[1] = system: mild to moderate COVID-19 patients at high risk of progression to severe disease; design: method as in https://www.fda.gov/media/154472/download; settings: ref https://www.fda.gov/media/154472/download; cited from earlier work
BCRP = target: T1, BCRP (Homo sapiens, UniProt Q9UNQ0); experiment: Bidirectional transport in MDCK-BCRP monolayers; assay type: in vitro ADME; settings: dog, pH 7.4; MDCK-BCRP cells; read-out: Efflux ratio of positive control
T1 construct: host or cells: MDCK (BCRP-MDCK)
T1 sequence (Q9UNQ0 1-655): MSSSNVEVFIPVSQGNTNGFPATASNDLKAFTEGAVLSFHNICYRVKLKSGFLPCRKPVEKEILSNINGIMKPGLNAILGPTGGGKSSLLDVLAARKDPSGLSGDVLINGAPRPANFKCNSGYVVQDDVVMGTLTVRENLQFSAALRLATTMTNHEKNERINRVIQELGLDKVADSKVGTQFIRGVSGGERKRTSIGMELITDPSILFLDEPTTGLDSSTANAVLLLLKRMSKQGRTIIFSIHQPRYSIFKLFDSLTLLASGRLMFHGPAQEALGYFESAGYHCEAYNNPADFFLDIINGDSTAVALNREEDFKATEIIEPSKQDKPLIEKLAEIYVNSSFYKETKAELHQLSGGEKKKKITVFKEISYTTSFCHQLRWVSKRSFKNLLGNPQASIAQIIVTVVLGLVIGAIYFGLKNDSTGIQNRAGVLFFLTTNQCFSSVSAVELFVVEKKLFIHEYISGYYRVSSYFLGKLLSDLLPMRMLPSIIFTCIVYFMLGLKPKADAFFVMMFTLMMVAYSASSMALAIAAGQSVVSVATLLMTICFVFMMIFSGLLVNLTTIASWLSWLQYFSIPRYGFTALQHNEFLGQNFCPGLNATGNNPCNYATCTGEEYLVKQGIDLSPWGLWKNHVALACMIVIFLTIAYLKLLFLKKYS
Procedure: Caco-2 (American Type Culture Collection), MDR1-MDCK (NIH), and BCRP-MDCK (transfected by Absorption Systems) cell monolayers were grown to confluence on collagen-coated, microporous membranes in 12-well assay plates. Caco-2 cells were cultured for 27 days, MDCK-MDR1 and MDCK-BCRP cells were cultured for 8 days prior to experiments. […] The experiment was carried out in Hanks’ balanced salt solution (HBSS) containing 10 mM HEPES and 15 mM glucose at pH 7.4. HBSS in the receiver chamber also contained 1% bovine serum albumin. Cells were first pre-incubated for 0.5 h in HBSS with or without the specific inhibitor (1 µM valspodar or 0.5 µM Ko143 for MDR1 and BCRP, respectively). […] Cell monolayers were dosed on the apical side (A to B) or basolateral side (B to A) and incubated at 37°C with 5% CO2 in a humidified incubator. Samples were taken from the donor and receiver chambers at 2 h. Each experiment was performed in duplicate. All samples were assayed by LC-MS/MS. The apparent permeability (Papp) and percent recovery were calculated as described previously ([Katoh et al., 2006]; [Xia et al., 2006]; [Li et al., 2008]).

[2] = Bidirectional transport in Caco-2 monolayers; settings: human, Caco-2, pH 7.4
MDR1 = experiment: in vitro; settings: dog, MDCK-MDR1, pH 7.4
[3] = system: EpiAirway human tracheobronchial epithelial tissues; settings: EpiAirway 3D HAE tissue model
[4] = system: mild to moderate COVID-19 patients at risk of progression to severe disease; design: method as in Gottlieb et al., 2021; settings: early 3-day course, ref Gottlieb et al., 2021; cited from earlier work
[5] = system: SARS-CoV-2 (USA_WA1/2020); experiment: SARS-CoV-2 cytopathic effect (CPE) assay in Vero E6 cells; assay type: cell-based; settings: Severe acute respiratory syndrome coronavirus 2, Vero C1008, 72 h, read-out: EC50, inhibition of SARS-CoV-2 CPE
[6] = system: hospitalized COVID-19 patients; design: method as in Beigel et al., 2020a; settings: treatment group, ref Beigel et al., 2020a; cited from earlier work
[7] = system: SARS-CoV-2 (2019-nCoV/USA-WAl/2020); assay type: cell-based; settings: EpiAirway 3D HAE tissue model, 24 h

## O=c1nc(NO)ccn1[C@@H]1O[C@H](CO)[C@@H](O)[C@H]1O [EIDD-1931, N-hydroxycytidine]
ENT2
  Inhibitor of ENT2: inhibitors
ENT1
  Inhibitor of ENT1: inhibitors

## CC(C)C(=O)OC[C@H]1O[C@@H](n2ccc(NO)nc2=O)[C@H](O)[C@@H]1O [EIDD-2801]
ENT2
  Inhibitor of ENT2: inhibitors
ENT1
  Inhibitor of ENT1: inhibitors
[1]
  Reduction of progression to hospitalization of death compared to placebo: 30%

## Nc1nc(Cl)nc2c1ncn2[C@H]1C[C@H](O)[C@@H](CO)O1 [cladribine, reference compound]
BCRP
  efflux ratio at 2 h: 153
[2]
  efflux ratio at 2 h: 26

## C[C@H]1O[C@@H](O[C@H]2[C@@H](O)C[C@H](O[C@H]3[C@@H](O)C[C@H](O[C@H]4CC[C@@]5(C)[C@H](CC[C@@H]6[C@@H]5C[C@@H](O)[C@]5(C)[C@@H](C7=CC(=O)OC7)CC[C@]65O)C4)O[C@@H]3C)O[C@@H]2C)C[C@H](O)[C@@H]1O [digoxin, reference compound]
[2]
  efflux ratio at 2 h: 27
MDR1
  efflux ratio at 2 h: 110

## CCC(CC)COC(=O)[C@H](C)N[P@](=O)(OC[C@H]1O[C@@](C#N)(c2ccc3c(N)ncnn23)[C@H](O)[C@@H]1O)Oc1ccccc1 [remdesivir]
[3]
  Cytotoxicity: did not exhibit any cytotoxicity
[4]
  Reduction of progression to hospitalization or death: 87%
[5]
  EC50: 7.43 µM
[6]
  Reduction of time to recovery: 33%
[7]
  Potency on viral titer (TCID50) at 24 h: lower potency than EIDD-2801
